Measured values published in patent US7572778B2, “Fluorocombretastatin and derivatives thereof” (Sigma-Tau Industrie Farmaceutiche Riunite S.p.A., priority 2003, dated 2009).
Marks after values point to notes of the source that are not given here.

Columns and labels:
[1] = test system: MES-SA human uterine sarcoma; assay: Cytotoxicity assay (sulforhodamine B), MES-SA; assay type: cell-based; conditions: 24 h exposure, then 48 h drug-free
Protocol: (§1) The following cell lines were purchased from ATCC and cultured according to manufacturer's instructions: NCIH460 human lung carcinoma, MeWo human melanoma, MES-SA human uterine sarcoma and HCT116 human colorectal carcinoma. HT-29 human colon adenocarcinoma cells and A2780 human ovarian carcinoma, obtained from Istituto Nazionale Tumori (Milan, Italy), were grown in RPMI 1640 (GIBCO) containing 10% fetal bovine serum (GIBCO) and 50 μg/ml gentamycin sulfate.
(§2) To test the effects of ST2303 on growth, cells were seeded in 96-well tissue culture plates (Corning) at approximately 10% confluence and were allowed to attach and recover for at least 24 h. Varying concentrations of the compound were then added to each well. The plates were incubated for 24 h and then washed before incubating them for additional 48 h. The number of surviving cells was then determined by staining with sulforhodamine B as described by Skehan et al. (1990). ST2303 inhibitory concentration 50 (IC50)±SD on different cell lines, evaluated by “ALLFIT” computer program, are shown in Table 1.

[2] = test system: HT-29 human colon adenocarcinoma cells; assay: Cytotoxicity assay (sulforhodamine B), HT-29; assay type: cell-based; conditions: HT29, 24 h exposure, then 48 h drug-free
Protocol: as §1, §2

[3] = test system: HUVEC (Human umbilical vein endothelial cells); assay: Cytotoxicity assay (sulforhodamine B), HUVEC; assay type: cell-based; conditions: 24 h exposure, then 48 h drug-free
Protocol: (§3) Primary cultures of bovine microvascular endothelial cells (BMEC) were obtained from bovine adrenal glands as described by Folkman (Folkman J., Haudenschild C. C., Zetter B. R. Long-term culture of capillary endothelial cells. Proc. Natl. Acad. Sci. USA, 1979 October; 76(10): 5217-21). BMEC were maintained in DMEM supplemented with 20% fetal calf serum (FCS), 50 units/ml heparin (Sigma, St. Louis, Mo.), 50 μg/ml bovine brain extract, 100 units/ml gentamycin. HUVEC (Human umbilical vein endothelial cells) were obtained from BioWhittaker (Walkersville, Md.) and grown in EGM-2 (BioWhittaker). EA-hy 926 cell line, a HUVEC-adenocarcinoma immortalized cell hybrid, was obtained from the Dipartimento di Scienze Biomediche e Oncologia Umana (Universita di Bari, Italy), and cultured in DMEM supplemented with 10% serum and 50 μg/ml gentamycin sulfate.
(§4) To test the effects of ST2303 on growth, cells were seeded in 96-well tissue culture plates (Corning) at approximately 10% confluence and were allowed to attach and recover for at least 24 h. Varying concentrations of the compound were then added to each well. […] The number of surviving cells was then determined by staining with sulforhodamine B as described by Skehan et al. (1990). ST2303 inhibitory concentration 50 (IC50)±SD on different cell lines, evaluated by “ALLFIT” computer program, are shown in Table 1.

[4] = test system: bovine microvascular endothelial cells (BMEC); assay: Cytotoxicity assay (sulforhodamine B), BMEC; assay type: cell-based; conditions: Bos taurus, Endothelial cell, 24 h exposure, then 48 h drug-free
Protocol: as §3, §4

[5] = test system: A2780 human ovarian carcinoma; assay: Cytotoxicity assay (sulforhodamine B), A2780; assay type: cell-based; conditions: 24 h exposure, then 48 h drug-free
Protocol: as §1, §2

[6] = test system: HCT116 human colorectal carcinoma; assay: Cytotoxicity assay (sulforhodamine B), HCT116; assay type: cell-based; conditions: HCT 116, 24 h exposure, then 48 h drug-free
Protocol: as §1, §2

[7] = test system: MeWo human melanoma; assay: Cytotoxicity assay (sulforhodamine B), MeWo; assay type: cell-based; conditions: 24 h exposure, then 48 h drug-free
Protocol: as §1, §2

[8] = test system: NCIH460 human lung carcinoma; assay: Cytotoxicity assay (sulforhodamine B), NCI-H460; assay type: cell-based; conditions: 24 h exposure, then 48 h drug-free
Protocol: as §1, §2

[9] = test system: tubulin; assay: Tubulin polymerisation inhibition test (CytoDINAMIX Screen, turbidity at 340 nm); assay type: biochemical; conditions: tubulin 3 mg/ml, 37° C.; mean of 3 independent determinations; read-out: IC50 ± SE, tubulin polymerisation
Protocol: The tubulin polymerisation test was performed by CytoDINAMIX Screen™. Turbidity from tubulin polimerisation was measured with a Victor2 from Wallac. HTS-tubulin was diluted to 3 mg/ml in buffer PEM [100 mM PIPES (pH 6.9), 1 mM EGTA and 1 mM MgCl2] containing 1 mM GTP (GPEM) plus 5% glycerol, and kept on ice. Aliquots of this solution was then placed at 37° C. in presence of taxol (3 μM) or colcemid (3 μM) or combretastatin (ST1986) or compounds to examinate, and absorbance was measured at 340 nm. The IC50 values were determined by non-linear regression analysis using “Prism GraphPad” software.
The value indicated in Table 3 is the mean of 3 independent determinations.

[10] = test system: EA-hy 926 cell line; assay: Cytotoxicity assay (sulforhodamine B), EA-hy 926; assay type: cell-based; conditions: Homo sapiens, EAHY.926, 24 h exposure, then 48 h drug-free
Protocol: as §3, §4

[11] = test system: NCI-H460 human lung carcinoma; assay: Tumor growth evaluation, NCI-H460 s.c. xenograft; assay type: in vivo, CD-1 nude mice
Protocol: NCI-H460 human lung carcinoma from in vitro cell cultures were injected s.c. (3×10^6 cells/100 μl/mouse) into the right flank of CD-1 nude mice. Four days after tumor implant mice started to be treated with ST2493 at the dose of 50 mg/kg intraperitoneally according to the following schedule: qdx5/w/3wks. CA-4P (combretastatin A-4 P) at the same dose was used as positive control.
All animals were weighed during the whole treatment period, in order to adjust the volume of drug administration and to record the percent of body weight loss due in the course of treatment.
In a following experiment with the same animal model ST2493 (prodrug of ST2303) was administered intravenously at the doses of 25 and 50 mg/kg according to a q2dx6 schedule.
Tumor growth was assessed by twice a week measurements of the shortest (width) and the longest (length) diameters of each tumor by a Vernier caliper and the antitumor activity was evaluated in terms of percent inhibition of tumor growth. Tumor volume (or tumor weight*) was calculated according to the following formula using caliper measurements: tumor volume or TV (mm^3)=[length (mm)×width (mm)^2]/2.
Tumor volume inhibition percent (% TVI) was calculated according to the equation: 100−[(mean tumor volume of treated group/mean tumor volume of control group)×100]. A P value≦0.05 was considered statistically significant.

[12] = i.p. 50 mg/kg, qdx5/w/3wks, day 11 after cell injection
[13] = i.p. 50 mg/kg, qdx5/w/3wks, day 28 after cell injection

`COc1ccc(/C(F)=C(/F)c2cc(OC)c(OC)c(OC)c2)cc1O` [ST2303, (Z)-1,2-difluoro-1-(3,4,5 trimethoxyphenyl)-2-(3-hydroxy-4-methoxyphenyl)ethene] was tested, and the IC50 [1] was less than 1 nM, the IC50 [2] was greater than 200 nM and the IC50 [3] was 1 ± 0.3 nM. For the same compound, the IC50 [4] was 1 ± 0.5 nM, the IC50 [5] was 3 ± 0.001 nM and the IC50 [6] was 2.2 ± 0.05 nM. It also gave an IC50 [7] of 3.6 ± 0.0003 nM, an IC50 [8] of 3 ± 0.005 nM and an IC50 [9] of 7700 ± 120 nM. It also gave an IC50 [10] of 5 ± 0.5 nM.
For `COc1ccc(/C(F)=C(/F)c2cc(OC)c(OC)c(OC)c2)cc1OP(=O)([O-])[O-].[Na+].[Na+]` [ST2493, (Z)-1,2-difluoro-1-(3,4,5-trimethoxyphenyl)-2-(3-hydroxy-4-methoxyphenyl)ethene o-disodium phosphate], the “TVI compared to vehicle (in words)” value ([11]; both intraperitoneal and intravenous administration) was “significant TVI”, the “% BWL (body weight loss)” value ([11]; i.p. 50 mg/kg, qdx5/w/3wks) was 8% and the mortality ([11]; i.p. 50 mg/kg, qdx5/w/3wks) was 0/8. For the same compound, the “% TVI (tumor volume inhibition)” value [11, 12] was 68** %, the “% TVI (tumor volume inhibition)” value [11, 13] was 73*** % and the “% BWL (body weight loss)” value ([11]; i.v. 25 mg/kg, q2dx6) was 8%. The mortality ([11]; i.v. 25 mg/kg, q2dx6) was 0/8, the “% TVI (tumor volume inhibition)” value ([11]; i.v. 25 mg/kg, q2dx6, day 11 after cell injection) was 63** % and the “% TVI (tumor volume inhibition)” value ([11]; i.v. 25 mg/kg, q2dx6, day 28 after cell injection) was 64*** %. The “% BWL (body weight loss)” value ([11]; i.v. 50 mg/kg, q2dx6) was 8%, the mortality ([11]; i.v. 50 mg/kg, q2dx6) was 0/8 and the “% TVI (tumor volume inhibition)” value ([11]; i.v. 50 mg/kg, q2dx6, day 11 after cell injection) was 73** %. For the same compound, the “% TVI (tumor volume inhibition)” value ([11]; i.v. 50 mg/kg, q2dx6, day 28 after cell injection) was 73** % and the “TVI compared with the same dose of CA-4P (in words)” value ([11]; intraperitoneal, 50 mg/kg, p=0.0095 at day 11, p=0.0180 at day 28, Mann Whitney's test) was “significant difference”.
For `COc1ccc(/C=C\c2cc(OC)c(OC)c(OC)c2)cc1OP(=O)(O)O` [CA-4P, combretastatin A-4 P, reference compound], the “% BWL (body weight loss)” value ([11]; i.p. 50 mg/kg, qdx5/w/3wks) was 3%, the mortality ([11]; i.p. 50 mg/kg, qdx5/w/3wks) was 0/8 and the “% TVI (tumor volume inhibition)” value [11, 12] was 47** %. For the same compound, the “% TVI (tumor volume inhibition)” value [11, 13] was 61*** %.
